Measurements: PubChem BioAssay AID330 (DTP/NCI, 2004)
Values joined by “and” are separate entries in the source; they are usually repeats but may differ in a detail not shown here. Identical values can stand only once. Inconclusive results and toxic doses are left out.

Tested on: P388 leukemia ip, CD2F1 mice, survival T/C
Test: NCI In Vivo Anticancer Drug Screen. Data for tumor model P388 Leukemia (intraperitoneal) in CD2F1 (CDF1) mice
Settings: endpoint: median survival time, higher = longer survival
Summary of the method: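 Mice carrying the transplanted tumor received test compound or vehicle. Survival was recorded in each group, and the value is the treated-group measurement divided by that of the vehicle-treated control group.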

[1] = dose: 50.0 mg/kg/injection, schedule: Q01DX005 (ip), vehicle: saline with Tween-80
[2] = dose: 25.0 mg/kg/injection, schedule: Q01DX005 (ip), vehicle: saline
[3] = dose: 60.0 mg/kg/injection, schedule: Q01DX005 (ip), vehicle: saline with Tween-80
[4] = dose: 120.0 mg/kg/injection, schedule: Q01DX005 (ip), vehicle: saline with Tween-80
[5] = dose: 240.0 mg/kg/injection, schedule: Q01DX005 (ip), vehicle: saline with Tween-80
[6] = dose: 50.0 mg/kg/injection, schedule: Q01DX009 (ip), vehicle: saline with Tween-80
[7] = dose: 100.0 mg/kg/injection, schedule: Q01DX009 (ip), vehicle: saline with Tween-80
[8] = dose: 200.0 mg/kg/injection, schedule: Q01DX009 (ip), vehicle: saline with Tween-80
[9] = dose: 30.0 mg/kg/injection, schedule: Q01DX005 (ip), vehicle: saline with Tween-80

SMILES: CC(C)(O)Cn1ccccc1=O
- T/C (dose: 100.0 mg/kg/injection, schedule: Q04DX003 (ip), vehicle: saline): 98 % of control
- T/C (dose: 200.0 mg/kg/injection, schedule: Q04DX003 (ip), vehicle: saline): 97 % of control
- T/C (dose: 400.0 mg/kg/injection, schedule: Q04DX003 (ip), vehicle: saline): 104 % of control

SMILES: C=C(C)C1(C)CC1c1ccncc1 (stereo not given)
- T/C (dose: 25.0 mg/kg/injection, schedule: Q01DX005 (ip), vehicle: saline with Tween-80): 102 % of control
- T/C [1]: 103 % of control
- T/C (dose: 100.0 mg/kg/injection, schedule: Q01DX005 (ip), vehicle: saline with Tween-80): 94 % of control

SMILES: CC(/C=N/NC(=O)C[n+]1ccccc1)=N/NC(=O)C[n+]1ccccc1
- T/C (dose: 3.12 mg/kg/injection, schedule: Q01DX005 (ip), vehicle: saline): 96 % of control and 98 % of control
- T/C (dose: 6.25 mg/kg/injection, schedule: Q01DX005 (ip), vehicle: saline): 97 % of control and 98 % of control
- T/C (dose: 12.5 mg/kg/injection, schedule: Q01DX005 (ip), vehicle: saline): 99 % of control and 97 % of control
- T/C [2]: 99 % of control and 101 % of control
- T/C [1]: 95 % of control

SMILES: OCCN1CCN(Cc2cc(Cl)cc(CN3CCN(CCO)CC3)c2O)CC1
- T/C [3]: 100 % of control
- T/C [4]: 97 % of control
- T/C [5]: 100 % of control

SMILES: O=c1[nH]cnc2nc(N3CCOCC3)sc12
- T/C [1]: 93 % of control
- T/C [4]: 96 % of control
- T/C (dose: 200.0 mg/kg/injection, schedule: Q01DX005 (ip), vehicle: saline with Tween-80): 95 % of control

SMILES: CCCCCc1ccccc1O
- T/C [6]: 100 % of control
- T/C [7]: 95 % of control

SMILES: COc1ccc([I+]c2ccccc2)cc1
- T/C (dose: 1.5 mg/kg/injection, schedule: Q01DX009 (ip), vehicle: saline): 109 % of control
- T/C (dose: 2.5 mg/kg/injection, schedule: Q01DX009 (ip), vehicle: saline sonified): 100 % of control
- T/C (dose: 3.0 mg/kg/injection, schedule: Q01DX009 (ip), vehicle: saline): 109 % of control
- T/C (dose: 6.0 mg/kg/injection, schedule: Q01DX009 (ip), vehicle: saline): 122 % of control

SMILES: COc1ccc2c(NCCCCNc3c4ccccc4nc4cc(OC)ccc34)c3ccccc3nc2c1
- T/C (dose: 0.62 mg/kg/injection, schedule: Q01DX009 (ip), vehicle: other): 101 % of control
- T/C (dose: 1.25 mg/kg/injection, schedule: Q01DX009 (ip), vehicle: other): 102 % of control
- T/C (dose: 2.5 mg/kg/injection, schedule: Q01DX009 (ip), vehicle: other): 108 % of control
- T/C (dose: 5.0 mg/kg/injection, schedule: Q01DX009 (ip), vehicle: other): 101 % of control
- T/C (dose: 10.0 mg/kg/injection, schedule: Q01DX009 (ip), vehicle: other): 107 % of control
- T/C (dose: 20.0 mg/kg/injection, schedule: Q01DX009 (ip), vehicle: other): 110 % of control

SMILES: CCCCCCC(CCC1CCCCC1)C(=O)O (stereo not given)
- T/C (dose: 50.0 mg/kg/injection, schedule: Q01DX001 (ip), vehicle: saline with Tween-80): 109 % of control
- T/C (dose: 100.0 mg/kg/injection, schedule: Q01DX001 (ip), vehicle: saline with Tween-80): 109 % of control
- T/C (dose: 200.0 mg/kg/injection, schedule: Q01DX001 (ip), vehicle: saline with Tween-80): 100 % of control

SMILES: CCOC(=O)N1CC2C3CN(C(=O)OCC)C4CC3(C(=O)O)C1CC24C(=O)O
- T/C [6]: 109 % of control
- T/C [7]: 100 % of control
- T/C [8]: 102 % of control

SMILES: Nc1nc(=O)n(C2CC(O)C(CO)O2)cc1Cl (stereo not given)
- T/C [2]: 98 % of control
- T/C (dose: 50.0 mg/kg/injection, schedule: Q01DX005 (ip), vehicle: saline): 105 % of control
- T/C (dose: 100.0 mg/kg/injection, schedule: Q01DX005 (ip), vehicle: saline): 100 % of control
- T/C (dose: 200.0 mg/kg/injection, schedule: Q01DX005 (ip), vehicle: saline): 110 % of control
- T/C (dose: 400.0 mg/kg/injection, schedule: Q01DX005 (ip), vehicle: saline): 107 % of control

SMILES: CCC(=O)N1C(=O)C(C)C23c4cccc([N+](=O)[O-])c4C(=O)N2CCCN13 (stereo not given)
- T/C (dose: 60.0 mg/kg/injection, schedule: Q01DX005 (ip), vehicle: Klucel (hydroxypropylcellulose) (HPC)): 100 % of control
- T/C (dose: 120.0 mg/kg/injection, schedule: Q01DX005 (ip), vehicle: Klucel (hydroxypropylcellulose) (HPC)): 97 % of control
- T/C (dose: 240.0 mg/kg/injection, schedule: Q01DX005 (ip), vehicle: Klucel (hydroxypropylcellulose) (HPC)): 93 % of control

SMILES: O=C1C2C3C=CC(O3)C2C(=O)N1CCN1CCOCC1 (stereo not given)
- T/C (dose: 25.0 mg/kg/injection, schedule: Q01DX005 (ip), vehicle: water): 96 % of control
- T/C (dose: 50.0 mg/kg/injection, schedule: Q01DX005 (ip), vehicle: water): 97 % of control
- T/C (dose: 100.0 mg/kg/injection, schedule: Q01DX005 (ip), vehicle: other): 93 % of control
- T/C (dose: 100.0 mg/kg/injection, schedule: Q01DX005 (ip), vehicle: water): 102 % of control
- T/C (dose: 200.0 mg/kg/injection, schedule: Q01DX005 (ip), vehicle: other): 101 % of control

SMILES: C=C(C)C(=O)OC1CCC2(C)C(CCC3C2CCC2(C)C(c4ccc(=O)oc4)CCC32O)C1 (stereo not given)
- T/C (dose: 12.5 mg/kg/injection, schedule: Q01DX009 (ip), vehicle: saline): 86 % of control
- T/C (dose: 25.0 mg/kg/injection, schedule: Q01DX009 (ip), vehicle: saline): 98 % of control
- T/C (dose: 50.0 mg/kg/injection, schedule: Q01DX009 (ip), vehicle: saline): 101 % of control and 94 % of control
- T/C (dose: 200.0 mg/kg/injection, schedule: Q01DX009 (ip), vehicle: saline): 95 % of control

SMILES: CCOC(=O)c1cnc(SC)n(-c2ccc(Cl)cc2)c1=O
- T/C (dose: 50.0 mg/kg/injection, schedule: Q01DX005 (ip), vehicle: Klucel (hydroxypropylcellulose) (HPC)): 100 % of control
- T/C (dose: 100.0 mg/kg/injection, schedule: Q01DX005 (ip), vehicle: Klucel (hydroxypropylcellulose) (HPC)): 100 % of control
- T/C (dose: 200.0 mg/kg/injection, schedule: Q01DX005 (ip), vehicle: Klucel (hydroxypropylcellulose) (HPC)): 108 % of control

SMILES: N#Cc1c(-c2ccc(F)cc2)c(-c2ccc(F)cc2)nn(CCO)c1=O
- T/C (dose: 12.5 mg/kg/injection, schedule: Q04DX002 (ip), vehicle: distilled water + Tween-80): 98 % of control
- T/C (dose: 25.0 mg/kg/injection, schedule: Q04DX002 (ip), vehicle: distilled water + Tween-80): 101 % of control and 108 % of control and 112 % of control
- T/C (dose: 50.0 mg/kg/injection, schedule: Q01DX005 (ip), vehicle: distilled water + Tween-80): 117 % of control
- T/C (dose: 100.0 mg/kg/injection, schedule: Q04DX002 (ip), vehicle: distilled water + Tween-80): 121 % of control and 166 % of control and 201 % of control
- T/C (dose: 200.0 mg/kg/injection, schedule: Q01DX005 (ip), vehicle: distilled water + Tween-80): 155 % of control
- T/C (dose: 200.0 mg/kg/injection, schedule: Q04DX002 (ip), vehicle: distilled water + Tween-80): 150 % of control
- T/C (dose: 400.0 mg/kg/injection, schedule: Q01DX005 (ip), vehicle: distilled water + Tween-80): 238 % of control

SMILES: NC(=O)NC(=O)C(Cc1ccc(Cl)cc1)c1ccccc1 (stereo not given)
- T/C [9]: 96 % of control and 97 % of control
- T/C [3]: 89 % of control and 94 % of control
- T/C [4]: 87 % of control and 89 % of control
- T/C [5]: 88 % of control

SMILES: CC1CC=C(C(=O)N2CCOCC2)C1 (stereo not given)
- T/C (dose: 50.0 mg/kg/injection, schedule: Q04DX003 (ip), vehicle: Klucel (hydroxypropylcellulose) (HPC)): 103 % of control
- T/C (dose: 100.0 mg/kg/injection, schedule: Q04DX003 (ip), vehicle: Klucel (hydroxypropylcellulose) (HPC)): 105 % of control
- T/C (dose: 200.0 mg/kg/injection, schedule: Q04DX003 (ip), vehicle: Klucel (hydroxypropylcellulose) (HPC)): 101 % of control

SMILES: C=CCNC(=S)Nc1sc(C)c(C)c1C(=O)OCC
- T/C [6]: 100 % of control
- T/C [7]: 100 % of control
- T/C [8]: 97 % of control

SMILES: COc1ccc(Cl)c2c(N=Nc3ccccc3[N+](=O)[O-])c(O)[nH]c12
- T/C (dose: 15.0 mg/kg/injection, schedule: Q01DX005 (ip), vehicle: saline with Tween-80): 103 % of control
- T/C [9]: 99 % of control
- T/C [3]: 95 % of control
- T/C [5]: 87 % of control

SMILES: [N-]=[N+]=NC1(c2ccccc2)C(=O)c2ccccc2C1=O
- T/C (dose: 100.0 mg/kg/injection, schedule: Q04DX003 (ip), vehicle: saline with Tween-80): 94 % of control
- T/C (dose: 200.0 mg/kg/injection, schedule: Q04DX003 (ip), vehicle: saline with Tween-80): 105 % of control

SMILES: O=c1c2ccccc2nc(-c2ccccc2)n1-c1cc(C(F)(F)F)cc(C(F)(F)F)c1
- T/C (dose: 6.25 mg/kg/injection, schedule: Q01DX009 (ip), vehicle: saline with Tween-80): 99 % of control
- T/C (dose: 12.5 mg/kg/injection, schedule: Q01DX009 (ip), vehicle: saline with Tween-80): 90 % of control
